Work on O=C(Nc1nnc(C2CC2)s1)OCC(F)(F)F yielded a melting point of 197 to 199 °C.
For CC(=O)Nc1cc(F)c(F)cc1N, the melting point was 162 to 164 °C.
With COC(=O)C(C)(N)C(c1ccccc1)c1ccccc1 (configuration not stated) the melting point was 68 to 70 °C.
In the case of CC1(C)NC(=O)N(Cc2ccc(Cl)nc2)C1=O, the melting point is reported as 127 to 129 °C.
Molecule Nc1ccn(CCc2ccccn2)n1 has a melting point of 69 to 71 °C.
With Nc1nc2ccc(F)cn2n1 the melting point was 166 to 168 °C.
With CN1C(=O)NC(=O)C12CCCCC2 the melting point was 172 to 174 °C.
Work on Cc1nc(-c2ccc(F)cc2)sc1C(=O)O yielded a melting point of 251 to 253 °C.
For O=Cc1c[nH]c2cc(Cl)ccc12, the melting point was 209 to 211 °C.
Molecule NCCCc1c[nH]c2ccccc12 has a melting point of 62 to 64 °C.
For O=C(O)CNS(=O)(=O)c1ccc2c(c1)COC2, the melting point was 219 to 221 °C.
With O=C(O)C(OC1CCOCC1)c1ccccc1 (configuration not stated) the melting point was 87 to 89 °C.
For O=C(O)c1cccc(-n2nccc2C(F)(F)F)c1, the melting point was 158 to 160 °C.
In the case of O=c1[nH]c(N2CCOCC2)cc2ccccc12, the melting point is reported as 212 to 214 °C.
For Cc1cc(Br)ccc1NC(=O)CCN, the melting point was 77 to 79 °C.
CC1CC(C)(C)CC2(C1)NC(=O)NC2=O (configuration not stated) gave a melting point of 273 to 275 °C.
Molecule O=C(O)c1ccc2c(=O)n(-c3ccccc3F)c(=O)[nH]c2c1 has a melting point of 343 to 345 °C.
For CC(=O)c1nnn(-c2ccc(Cl)cc2)c1C, the melting point was 113 to 115 °C.
Work on O=S(=O)(Cl)c1cn[nH]c1 yielded a melting point of 99 to 101 °C.
With Cc1ccc(NS(=O)(=O)c2cc(N)ccc2Cl)c(C)c1 the melting point was 57 to 59 °C.
Work on N#CCC(=O)Nc1ccccn1 yielded a melting point of 160 to 162 °C.
For Nc1cc([N+](=O)[O-])ccc1Nc1ccc(F)cc1, the melting point was 162 to 164 °C.
Work on CCn1c(C2CCN(C(=O)OC(C)(C)C)CC2)n[nH]c1=O yielded a melting point of 219 to 221 °C.
In the case of OCC#Cc1ccc(Cl)cc1, the melting point is reported as 76 to 78 °C.
With Cc1ccc(C(=O)NC=C(Cl)Cl)cc1 the melting point was 96 to 98 °C.
In the case of CC(C)NS(=O)(=O)c1cc(C(=O)O)ccc1F, the melting point is reported as 168 to 170 °C.
In the case of O=C(O)c1c(F)ccc(OC(F)F)c1F, the melting point is reported as 90 to 92 °C.
NC(=O)C1CNCCN1 (configuration not stated) showed a melting point of 142 to 144 °C.
Cc1cc(=O)n2c(n1)NCC2 showed a melting point of 159 to 161 °C.
Work on COC(=O)C(=O)CC(=O)c1ccncc1 yielded a melting point of 93 to 95 °C.
Work on Nc1cccc(NC(=O)c2ccncc2)c1 yielded a melting point of 185 to 187 °C.
O=C(O)C1CCN(S(=O)(=O)c2ccccc2)CC1 gave a melting point of 156 to 158 °C.
N#Cc1cccc(N2CCCC2=O)c1 showed a melting point of 81 to 83 °C.
With CCCNC(=O)CN1CCNCC1 the melting point was 31 to 32 °C.
CCc1cc(C(=O)O)nn1C showed a melting point of 119 to 121 °C.
N#Cc1ccnc(-n2cncn2)c1 gave a melting point of 149 to 151 °C.
With CCc1cccnc1N the melting point was 38 to 40 °C.
In the case of CSc1nc(-c2ccc(F)cc2)nc(C)c1C(=O)O, the melting point is reported as 231 to 233 °C.
Cn1nc(Br)c2c(N)ncnc21 gave a melting point of 228 to 230 °C.
CC(C)(C)c1nc(=N)s[nH]1 gave a melting point of 160 to 162 °C.
With Oc1ccc(-c2nnc[nH]2)cc1 the melting point was 244 to 246 °C.
Cc1cccc(S(=O)(=O)Cl)c1Br showed a melting point of 56 to 58 °C.
With CC(C)(C)CCS(N)(=O)=O the melting point was 91 to 93 °C.
For CC(Cl)C(=O)c1c(N)n(C)c(=O)n(C)c1=O (configuration not stated), the melting point was 140 to 142 °C.
O=[N+]([O-])c1ccc(-c2nnc(CCl)o2)cc1 showed a melting point of 128 to 130 °C.
Work on O=C(O)c1cnc2c(cnn2Cc2ccccc2)c1 yielded a melting point of 210 to 212 °C.
With NC(=O)c1ccc(NCCO)c([N+](=O)[O-])c1 the melting point was 218 to 220 °C.
With Cc1ccc(N)cc1S(=O)(=O)N1CCCCCC1 the melting point was 44 to 46 °C.
With COc1ccc(N2CCC(N)CC2)cc1 the melting point was 50 to 52 °C.
Molecule CCC(C)Oc1cc(C(=O)O)ccn1 (configuration not stated) has a melting point of 83 to 85 °C.
Work on O=C(O)c1cnc2c(OC(F)(F)F)cccc2c1O yielded a melting point of 259 to 261 °C.
Work on Nc1cccc(NC(=O)c2cccs2)c1 yielded a melting point of 134 to 136 °C.
O=C(O)c1csc(-c2cccc(C(F)(F)F)c2)n1 showed a melting point of 200 to 202 °C.
In the case of Cn1c(=O)n(C)c2cc(N)ccc21, the melting point is reported as 148 to 150 °C.
O=C(O)CCn1ncc2ccc([N+](=O)[O-])cc21 gave a melting point of 151 to 153 °C.
For Cc1[nH][nH]c(=O)c1CCO, the melting point was 183 to 185 °C.
Molecule CC(Oc1ccccc1F)C(=O)NN (configuration not stated) has a melting point of 64 to 66 °C.

From a melting point compilation (Tetko et al.)
